# Values of other authors, collected in patent publication US9854827B2, “Sweetener” (Tate & Lyle Ingredients Americas LLC, priority 2013, dated 2018).
# Conditions: % of the sweetness of sucrose
smiles,measurement,value
"O=C(CO)C(O)C(O)C(O)CO (stereo not shown) [Allulose, allulose]",sweetness relative to sucrose,around 70%
